Assay results as given in patent US20250090530A1, “COMBINATIONS FOR THE TREATMENT OF CANCER” (Terns Pharmaceuticals, Inc., priority 2023, published 2025).

Columns and labels:
K562 [1] = assay: Fixed molar combinations with active site TKIs, curve shift and isobologram analyses (CellTiter-Glo viability); assay type: cell-based
Ku812 [2] = assay: as above; assay type: cell-based
BaF3-BCR-ABL-T315I = assay: Expanded combination matrix, excess over Bliss; assay type: cell-based; details: 72 hours
BaF3BCR-ABL-T315I = assay: Fixed molar combinations, curve shift and isobologram analyses; assay type: cell-based; details: 72 hours
K562 [3] = assay: Expanded combination matrix, BLISS synergy (CellTiter-Glo viability); assay type: cell-based
Ku812 [4] = assay: as above; assay type: cell-based
kinase panel = assay: In vitro kinase panel (substrate phosphorylation assays); assay type: biochemical; details: at 1 μM

`O=C(Nc1ccc(OC(F)(F)Cl)cc1)c1cnc(N2CC[C@@H](O)C2)c(-c2cc[nH]n2)c1` [Asciminib, asciminib] was tested, and the “Summary of Observations (synergy by curve shift and isobologram analyses)” value (K562 [1]; combination partner Dasatinib) was “Synergy at IC90”, the “Summary of Observations (synergy by curve shift and isobologram analyses)” value (K562 [1]; combination partner Imatinib) was “Synergy at IC75 and IC90” and the “Summary of Observations (synergy by curve shift and isobologram analyses)” value (K562 [1]; combination partner Ponatinib) was “Synergy at IC75 and IC90”. The “Summary of Observations (synergy by curve shift and isobologram analyses)” value (Ku812 [2]; combination partner Dasatinib) was “Additivity”, the “Summary of Observations (synergy by curve shift and isobologram analyses)” value (Ku812 [2]; combination partner Imatinib) was “Additivity” and the “Summary of Observations (synergy by curve shift and isobologram analyses)” value (Ku812 [2]; combination partner Ponatinib) was “Additivity”. The “Excess over Bliss score sum” value (BaF3-BCR-ABL-T315I; Compound 2 dasatinib) was 3.19, the “Highest excess over Bliss score” value (BaF3-BCR-ABL-T315I; Compound 2 dasatinib) was 0.27 and the “Excess over Bliss score sum” value (BaF3-BCR-ABL-T315I; Compound 2 flumatinib) was 0.81. The “Highest excess over Bliss score” value (BaF3-BCR-ABL-T315I; Compound 2 flumatinib) was 0.15, the “Excess over Bliss score sum” value (BaF3-BCR-ABL-T315I; Compound 2 imatinib) was 1.29 and the “Highest excess over Bliss score” value (BaF3-BCR-ABL-T315I; Compound 2 imatinib) was 0.15. For the same compound, the “Excess over Bliss score sum” value (BaF3-BCR-ABL-T315I; Compound 2 nilotinib) was 0.36, the “Highest excess over Bliss score” value (BaF3-BCR-ABL-T315I; Compound 2 nilotinib) was 0.05 and the “Excess over Bliss score sum” value (BaF3-BCR-ABL-T315I; Compound 2 ponatinib) was 0.83. For the same compound, the “Highest excess over Bliss score” value (BaF3-BCR-ABL-T315I; Compound 2 ponatinib) was 0.14, the “Conclusion (synergy by curve shift and isobologram analyses)” value (BaF3BCR-ABL-T315I; Reference dasatinib) was “synergy” and the “Conclusion (synergy by curve shift and isobologram analyses)” value (BaF3BCR-ABL-T315I; Reference flumatinib) was “no synergy”. For the same compound, the “Conclusion (synergy by curve shift and isobologram analyses)” value (BaF3BCR-ABL-T315I; Reference nilotinib) was “no synergy”.
`C[C@H](CO)n1c(C(F)F)nc2cc(C(=O)Nc3ccc(OC(F)(F)Cl)cc3)cc(-c3cncnc3)c21` [Compound A, (R)—N-(4-(chlorodifluoromethoxy)phenyl)-2-(difluoromethyl)-1-(1-hydroxypropan-2-yl)-7-(pyrimidin-5-yl)-1H-benzo[d]imidazole-5-carboxamide] was tested, and the “Interaction in in vitro combination studies” value (K562 [1]; with multiple TKIs) was “works synergistically”, the “Interaction in in vitro combination studies” value (Ku812 [2]; with multiple TKIs) was “at least additively” and the “Strongest BLISS score” value (K562 [3]; combination partner Dasatinib) was 0.16. The “Summary of Observations (BLISS synergy)” value (K562 [3]; combination partner Dasatinib) was “BLISS synergy”, the “Strongest BLISS score” value (K562 [3]; combination partner Imatinib) was 0.12 and the “Summary of Observations (BLISS synergy)” value (K562 [3]; combination partner Imatinib) was “BLISS synergy”. For the same compound, the “Strongest BLISS score” value (K562 [3]; combination partner Ponatinib) was 0.17, the “Summary of Observations (BLISS synergy)” value (K562 [3]; combination partner Ponatinib) was “BLISS synergy” and the “Strongest BLISS score” value (Ku812 [4]; combination partner Dasatinib) was 0.08. The “Summary of Observations (BLISS synergy)” value (Ku812 [4]; combination partner Dasatinib) was “Weak synergy observed”, the “Strongest BLISS score” value (Ku812 [4]; combination partner Imatinib) was 0.05 and the “Summary of Observations (BLISS synergy)” value (Ku812 [4]; combination partner Imatinib) was “Weak synergy observed”. For the same compound, the “Strongest BLISS score” value (Ku812 [4]; combination partner Ponatinib) was 0.07, the “Summary of Observations (BLISS synergy)” value (Ku812 [4]; combination partner Ponatinib) was “Weak synergy observed” and the “Inhibition of any kinase in in vitro kinase panel” value (kinase panel) was at most 50%.
